# Activity calls are given as the source filed them. The rule behind the calls is not given here.
# System: GENE-TOX genotoxicity assays, various organisms and cells
# Assay: GENE-TOX mutagenicity studies
# Conditions: for call: Assay Type: In vivo carcinogenicity studies
# [1] = Species/Cell Type: Human lymphocytes, Assay Type: Sister-chromatid exchange (SCE) in vitro, Assay Code: SCLT, Evaluation Type: Evaluation B (Post-1980)
# [2] = Species/Cell Type: Human, Assay Type: Sister-chromatid exchange (SCE) in vitro, Assay Code: SC1T, Evaluation Type: Evaluation B (Post-1980)
# [3] = Species/Cell Type: Chinese hamster lung (V79) cells, Assay Type: Forward gene mutation at the HPRT or ouabain locus, Assay Code: V79+, Evaluation Type: Evaluation A (Pre-1980)
# [4] = Species/Cell Type: Fischer rat embryo (RLV/1706) cells, Assay Type: Cell transformation, viral enhanced, Assay Code: CTR+, Evaluation Type: Evaluation A (Pre-1980)
# [5] = Species/Cell Type: Nonhuman, Assay Code: CCG+, Evaluation Type: Evaluation A (Pre-1980)
# [6] = Species/Cell Type: Salmonella typhimurium (one or more of the five standard strains: TA98, TA100, TA1535, TA1537, and TA1538), Assay Type: Histidine reverse gene mutation, Ames assay, Assay Code: SAL+*, Activation: With metabolic activation, Evaluation Type: Evaluation A (Pre-1980)
# [7] = Species/Cell Type: Mammalian polychromatic erythrocytes, Assay Type: Micronucleus test, chromosome aberrations, Assay Code: MNTT, Evaluation Type: Evaluation B (Post-1980)
# [8] = Species/Cell Type: Allium cepa, Assay Type: Chromosome aberrations, Assay Code: ALC-, Evaluation Type: Evaluation A (Pre-1980)
# [9] = Species/Cell Type: Salmonella typhimurium (one or more of the five standard strains: TA98, TA100, TA1535, TA1537, and TA1538), Assay Type: Histidine reverse gene mutation, Ames assay, Assay Code: SAL+, Evaluation Type: Evaluation A (Pre-1980)
# [10] = Species/Cell Type: Drosophila melanogaster, Assay Type: Sex-linked recessive lethal gene mutation, Assay Code: SRLT, Evaluation Type: Evaluation A (Pre-1980)
# [11] = Species/Cell Type: Escherichia coli polA (W3119 vs P3478), Assay Type: Rec-assay, DNA effects (bacterial DNA repair), Assay Code: RE1T, Evaluation Type: Evaluation A (Pre-1980)
# [12] = Species/Cell Type: Human diploid fibroblasts, Assay Type: Unscheduled DNA synthesis (UDS) in vitro, DNA effects, Assay Code: UDH-, Evaluation Type: Evaluation A (Pre-1980)
# [13] = Species/Cell Type: Nonhuman, Assay Type: Sister-chromatid exchange (SCE) in vitro, Assay Code: SC2+D, Dose Response: With dose response, Evaluation Type: Evaluation B (Post-1980)
smiles,measurement,setting,value
COc1ccc(CCN2CCC(Nc3nc4ccccc4n3Cc3ccc(F)cc3)CC2)cc1,mutagenic call,[1],no conclusion
same,mutagenic call,[2],no conclusion
same,mutagenic call,"Species/Cell Type: Mammalian polychromatic erythrocytes, Assay Type: Micronucleus test, chromosome aberrations, Assay Code: MNT-, Evaluation Type: Evaluation B (Post-1980)",inactive; negative
Nc1ccc(Cl)cc1,mutagenic call,"Species/Cell Type: Escherichia coli polA (W3119 vs P3478), Assay Type: Rec-assay, DNA effects (bacterial DNA repair), Assay Code: RE1+, Evaluation Type: Evaluation A (Pre-1980)",active; positive
same,mutagenic call,"Species/Cell Type: Saccharomyces cerevisiae, Assay Type: Mitotic recombination or gene conversion, Assay Code: YEH-, Evaluation Type: Evaluation A (Pre-1980)",inactive; negative
same,mutagenic call,"Species/Cell Type: Syrian hamster embryo (SHE) cells, Assay Type: Cell transformation, clonal assay, Assay Code: CTC+, Evaluation Type: Evaluation A (Pre-1980)",active; positive
CN(N=O)C(=O)NC1O[C@H](CO)[C@@H](O)[C@H](O)[C@H]1O (stereo partly specified),mutagenic call,[3],active; positive
c1ccc2c(c1)ccc1nc3ccc4ccccc4c3cc12,mutagenic call,[4],active; positive
same,call,[5],active; positive
same,mutagenic call,[6],active; positive
Nc1ccc(OCCO)c(N)c1,mutagenic call,[7],no conclusion
O/C=C/Cc1ccc2c(c1)OCO2,mutagenic call,"Species/Cell Type: Human diploid fibroblasts, Assay Type: Unscheduled DNA synthesis (UDS) in vitro, DNA effects, Assay Code: UDH+, Evaluation Type: Evaluation A (Pre-1980)",active; positive
Cc1cc(O)cc(O)c1,mutagenic call,[8],inactive; negative
Cc1ccc2cc3c(ccc4ccccc43)c3c2c1C(=O)C3,mutagenic call,[3],active; positive
same,call,"Species/Cell Type: Nonhuman, Assay Code: CCG+L, Evaluation Type: Evaluation A (Pre-1980)",active; positive
same,mutagenic call,[6],active; positive
C1=Cc2c(cc3ccc4cccc5ccc2c3c45)CC1,mutagenic call,[6],active; positive
NC(=O)N(CCO)N=O,mutagenic call,[9],active; positive
OCC(c1ccc(Cl)cc1)c1ccc(Cl)cc1,mutagenic call,[10],no conclusion
Cc1cc(Cc2ccc(N)c(C)c2)ccc1N,call,[5],active; positive
O=c1nc(NO)ccn1[C@@H]1O[C@H](CO)[C@@H](O)[C@H]1O,mutagenic call,"Species/Cell Type: Escherichia coli WP2, Assay Type: Tryptophan reverse gene mutation, Assay Code: WP2+D, Dose Response: With dose response, Evaluation Type: Evaluation A (Pre-1980)",active; positive
same,mutagenic call,"Species/Cell Type: Escherichia coli WP2 UVRA, Assay Type: Tryptophan reverse gene mutation, Assay Code: WPU+D, Dose Response: With dose response, Evaluation Type: Evaluation A (Pre-1980)",active; positive
CCCCCC(=O)C(CCCC)c1oc(=O)c(CCCC)c(O)c1CCCC (stereo unspecified),mutagenic call,[1],no conclusion
same,mutagenic call,[2],no conclusion
c1cc2ccc3cc4c(c5ccc(c1)c2c35)CCC1OC41 (stereo unspecified),mutagenic call,"Species/Cell Type: Chinese hamster lung (V79) cells, Assay Type: Forward gene mutation at the HPRT or ouabain locus, Assay Code: V79-, Evaluation Type: Evaluation A (Pre-1980)",inactive; negative
same,mutagenic call,"Species/Cell Type: Mouse prostate cells, Assay Type: Cell transformation, Assay Code: CTM+, Evaluation Type: Evaluation A (Pre-1980)",active; positive
same,mutagenic call,[9],active; positive
CCOP(=S)(OCC)SCSC(C)(C)C,mutagenic call,"Species/Cell Type: Hordeum vulgare (barley), Assay Type: Chromosome aberrations, Assay Code: HOC+D, Dose Response: With dose response, Evaluation Type: Evaluation A (Pre-1980)",active; positive
CCn1c(=O)c2c(ncn2CC)n(CC)c1=O,mutagenic call,[8],inactive; negative
Cc1cccc(N=Nc2ccc(N(C)C)cc2)c1,mutagenic call,[10],no conclusion
same,mutagenic call,"Species/Cell Type: Escherichia coli polA (W3110 vs P3478), Assay Type: Rec-assay, DNA effects (bacterial DNA repair), Assay Code: RE2-, Evaluation Type: Evaluation A (Pre-1980)",inactive; negative
same,mutagenic call,[11],no conclusion
same,mutagenic call,[4],active; positive
same,mutagenic call,[12],inactive; negative
same,mutagenic call,"Species/Cell Type: Mouse embryo (AKR/ME) cells, Assay Type: Cell transformation, Assay Code: CTK-, Evaluation Type: Evaluation A (Pre-1980)",inactive; negative
same,mutagenic call,"Species/Cell Type: Neurospora crassa, Assay Type: Forward gene mutation, Assay Code: NEF+, Evaluation Type: Evaluation A (Pre-1980)",active; positive
same,call,[5],active; positive
same,mutagenic call,[13],active; positive
same,mutagenic call,"Species/Cell Type: Nonhuman, Assay Type: Sister-chromatid exchange (SCE) in vivo, Assay Code: SC3+, Evaluation Type: Evaluation B (Post-1980)",active; positive
same,mutagenic call,"Species/Cell Type: Rat primary hepatocytes, Assay Type: Unscheduled DNA synthesis (UDS) in vitro, DNA effects, Assay Code: UDP+D, Dose Response: With dose response, Evaluation Type: Evaluation A (Pre-1980)",active; positive
same,mutagenic call,"Species/Cell Type: Saccharomyces cerevisiae, Assay Type: Mitotic recombination or gene conversion, Assay Code: YEH+*, Activation: With metabolic activation, Evaluation Type: Evaluation A (Pre-1980)",active; positive
same,mutagenic call,"Species/Cell Type: Salmonella typhimurium, Assay Type: Forward and reverse gene mutation, host-mediated assay, Assay Code: HMA-, Evaluation Type: Evaluation A (Pre-1980)",inactive; negative
same,mutagenic call,"Species/Cell Type: Syrian hamster embryo (SHE) cells, Assay Type: Cell transformation, clonal assay, Assay Code: CTCT, Evaluation Type: Evaluation A (Pre-1980)",no conclusion
Nc1nc(/C=C/c2ccc([N+](=O)[O-])o2)cs1,mutagenic call,[9],active; positive
O=CNc1nc(-c2ccc([N+](=O)[O-])s2)cs1,mutagenic call,[9],active; positive
Oc1c(Cl)cc(Cl)c(Cl)c1Cc1c(O)c(Cl)cc(Cl)c1Cl,mutagenic call,[7],no conclusion
Cc1c2ccccc2c(C)c2c1c(O)c(O)c1ccccc12,mutagenic call,"Species/Cell Type: Chinese hamster lung (V79) cells, Assay Type: Forward gene mutation at the HPRT or ouabain locus, Assay Code: V79-*, Activation: With metabolic activation, Evaluation Type: Evaluation A (Pre-1980)",inactive; negative
same,call,"Species/Cell Type: Nonhuman, Assay Code: CCGT, Evaluation Type: Evaluation A (Pre-1980)",no conclusion
Cc1[nH]cnc1CSCCN=C(NC#N)N(C)N=O,mutagenic call,"Species/Cell Type: Human lymphocytes, Assay Type: Sister-chromatid exchange (SCE) in vitro, Assay Code: SCL+D, Dose Response: With dose response, Evaluation Type: Evaluation B (Post-1980)",active; positive
same,mutagenic call,"Species/Cell Type: Human, Assay Type: Sister-chromatid exchange (SCE) in vitro, Assay Code: SC1+D, Dose Response: With dose response, Evaluation Type: Evaluation B (Post-1980)",active; positive
same,mutagenic call,[13],active; positive
Nc1ccc(C(=O)O)c(O)c1,mutagenic call,[11],no conclusion
O=C1OCCN1N=Cc1ccc([N+](=O)[O-])o1,mutagenic call,"Species/Cell Type: Bacillus subtilis (H17 vs M45), Assay Type: Rec-assay, spot test, DNA effects (bacterial DNA repair), Assay Code: REW+, Evaluation Type: Evaluation A (Pre-1980)",active; positive
same,mutagenic call,"Species/Cell Type: Drosophila melanogaster, Assay Type: Sex-linked recessive lethal gene mutation, Assay Code: SRL+, Evaluation Type: Evaluation A (Pre-1980)",active; positive
same,mutagenic call,"Species/Cell Type: Escherichia coli WP2, Assay Type: Tryptophan reverse gene mutation, Assay Code: WP2+, Evaluation Type: Evaluation A (Pre-1980)",active; positive
same,mutagenic call,"Species/Cell Type: Escherichia coli WP2 UVRA, Assay Type: Tryptophan reverse gene mutation, Assay Code: WPU+, Evaluation Type: Evaluation A (Pre-1980)",active; positive
same,mutagenic call,[12],inactive; negative
same,mutagenic call,"Species/Cell Type: Human lymphocytes, Assay Type: Sister-chromatid exchange (SCE) in vitro, Assay Code: SCL+, Evaluation Type: Evaluation B (Post-1980)",active; positive
same,mutagenic call,"Species/Cell Type: Human lymphocytes, Assay Type: Sister-chromatid exchange (SCE) in vitro, Assay Code: SCLT, Evaluation Type: Evaluation A (Pre-1980)",no conclusion
same,mutagenic call,"Species/Cell Type: Human, Assay Type: Sister-chromatid exchange (SCE) in vitro, Assay Code: SC1+, Evaluation Type: Evaluation B (Post-1980)",active; positive
same,mutagenic call,"Species/Cell Type: Human, Assay Type: Sister-chromatid exchange (SCE) in vitro, Assay Code: SC1T, Evaluation Type: Evaluation A (Pre-1980)",no conclusion

# Source: PubChem BioAssay AID1259408 (Genetic Toxicology Data Bank (GENE-TOX), 2018)
